Measured values taken from patent US11779628B2, “Use of cell-permeable peptide inhibitors of the JNK signal transduction pathway for the treatment of various diseases” (Xigen Inflammation Ltd., priority 2014, dated 2023).
Like-named read-outs stand apart in the source and are kept apart here.

What was measured:
Brown Norway rats, STZ = assay: Diabetic retinopathy prevention study in STZ treated rat (IVT); format: in vivo; conditions: 0.2 and 2 μg/eye IVT
Description: The objective of this study was to determine the ability of XG-102 to prevent diabetic retinopathy when administered by intravitreal injections to streptozotocin (STZ)-treated (hyperglycemic) rats.
Sterile vials containing 0.0412 g of inducing agent (STZ) were pre-weighed, sealed and transferred to the dosing room for administration to Groups 2 to 4 animals and Spares on Day −7. A duplicate set of empty, appropriately labeled sterile vials were provided. The reconstituted STZ solution was filtered into these vials for dosing. The Reference Item, 0.9% NaCl, was administered as received. XG-102 was prepared using the correction factor 1.383. A stock solution equal to the highest dose level was prepared in vehicle, 0.9% Sodium Chloride for Injection, and sterile filtered through a 0.22 μm polyvinylidene difluoride (PVDF) filter. The lower dose levels were prepared by directly diluting the stock solution. Dose formulations were prepared once at appropriate concentrations to meet dosage level requirements. All dilutions were prepared by directly diluting the stock solution with vehicle. Three dosing aliquots (Days 1, 8 and 15) were prepared and stored in a freezer set to maintain −20° C. Aliquot(s) of each dose level were thawed at ambient temperature on each day of dosing and the solution maintained at room temperature for no longer than 6 hours. […]

db/db mice = conditions: mouse, in vivo
Description: i) Animals • A total of twenty (20) male db/db mice (8 weeks old) were obtained from Charles River (Germany). Upon arrival, animals were group housed (n=6-7/group) and offered regular rodent chow (Altromin standard #1324 chow; C. Petersen, Ringsted, Denmark) and water ad libitum unless otherwise stated. The mice were housed under a 12:12 L/D cycle (lights on at 4:00 and lights off at 16:00) and in temperature and humidity controlled rooms.
ii) Groups and Randomization • On day −4, mice were randomized according to blood glucose level (fasted; blood glucose measured on Biosen S line analyzer (EKF diagnostic, Germany) to participate in one of the following drug treatment groups (n=6): • 1) Vehicle control, S.C. (physiological saline) • 2) XG-102 (SEQ ID NO: 11); 1 mg/kg; s.c. • 3) XG-102 (SEQ ID NO: 11); 10 mg/kg; s.c • All doses listed were calculated for the free-base. […] All compounds were administered sub-cutaneously (s.c.) in a volume of 3 ml/kg. The formulation instructions for vehicle control and XG-102 (SEQ ID NO: 11) were as follows: • First, XG-102 (SEQ ID NO: 11) was dissolved in the vehicle. […]
i) Blood Glucose • Blood glucose was measured from 7 hour fasted animals 6 hours post dosing by collection of 10 μl blood samples from the tail-vein in hematocrite tubes and subsequent analysis on a Biosen s-line analyzer (EKF-diagnostic; Germany).

[1] = tested on: patients after ocular surgery; assay: Clinical Phase II, post-surgery intraocular inflammation: safety; conditions: for AEs considered by the Investigator to be related to Dexamethasone / AEs considered by the Investigator to be related to XG-102: blinded assessment
Protocol: The criteria for evaluation of safety were: • a. Visual acuity by ETDRS method • b. Slit Lamp examination findings • c. The results of the ophthalmic fundus examination • d. Intra Ocular Pressure (IOP) measurements • e. Vital signs (blood pressure (BP), pulse rate (PR) and rhythm) • f. The results of the hematology and chemistry laboratory tests • g. The occurrence of Adverse Events • h. Presence (or not) of XG-102 in plasma 1 hour after the administration of study treatment in a subset of patients (approximately 30).
An AE is therefore any unfavorable and unintended sign, symptom or disease temporally associated with the use of a medicinal product, whether or not considered related to the medicinal product.
A Suspected Unexpected Serious Adverse Reaction (SUSAR) was defined as a suspected adverse reaction related to the treatment that is both unexpected (i.e. not consistent with the expected outcomes of the study treatment being administered) and serious.
Patients were analyzed as treated, i.e. according to the treatment which they received. The safety set was the primary analysis set for the safety analysis.
The present study was a double-blind study. All patients who were randomized and for whom the sub-conjunctival injection was started are included in the safety analysis by dose group. […] If the study treatment eye drops were stopped prematurely (i.e. before day 21), the patients concerned continued follow-up until day 28, in accordance with the study protocol.
Investigators assessed (in a blinded manner) the relationship of each reported AE to any of the study treatments. An event was considered to be related to study treatment if the Investigator ticked either ‘possible’ or ‘probable’ as the reply to this question.

Compound: CC(C)C[C@@H](NC(=O)[C@@H](Cc1ccccc1)NC(=O)[C@H]1CCCN1C(=O)[C@@H](CCC(N)=O)NC(=O)[C@H](NC(=O)[C@H]1CCCN1C(=O)[C@@H](CCCNC(=N)N)NC(=O)[C@@H](CO)NC(=O)[C@@H](CCC(N)=O)NC(=O)[C@H](N)CC(=O)O)C(C)C)C(=O)N[C@H](CC(N)=O)C(=O)N[C@H](CC(C)C)C(=O)N[C@@H](C(=O)N[C@@H](C(=O)N1CCC[C@@H]1C(=O)N[C@H](CCCNC(=N)N)C(=O)N[C@H](CCCCN)C(=O)N1CCC[C@@H]1C(=O)N[C@H](CCCNC(=N)N)C(=O)N1CCC[C@@H]1C(=O)N1CCC[C@@H]1C(=O)N[C@H](CCCNC(=N)N)C(=O)N[C@H](CCCNC(=N)N)C(=O)N[C@H](CCCNC(=N)N)C(=O)N[C@H](CCC(N)=O)C(=O)N[C@H](CCCNC(=N)N)C(=O)N[C@H](CCCNC(=N)N)C(=O)N[C@H](CCCCN)C(=O)N[C@H](CCCCN)C(=O)N[C@H](CCCNC(=N)N)C(=O)NCC(=O)O)[C@H](C)O)[C@H](C)O [XG-102]
- clinical signs, body weights, food consumption (Brown Norway rats, STZ): no XG-102-related clinical signs or effects on body weights, body weight gains or food consumption
- deaths (Brown Norway rats, STZ): no XG-102-related deaths during the study
- reaction of subcutaneous tissue at injection (db/db mice; 1 mg/kg): mild nodular fibrosis was observed
- reaction of subcutaneous tissue at injection (db/db mice; 10 mg/kg): nodular fibrosis was observed in the subcutaneous tissue
- AEs possibly or probably related to study treatment as assessed by the Investigator ([1]; 90 μg XG-102 (N = 47)): 18 Total # events
- AEs considered by the Investigator to be related to Dexamethasone ([1]; 90 μg XG-102 group): 2 (2.6%) Total # events (%)
- AEs considered by the Investigator to be related to XG-102 ([1]; 90 μg XG-102 group): 16 (20.5%) Total # events (%)
- AEs possibly or probably related to study treatment as assessed by the Investigator ([1]; 900 μg XG-102 (N = 48)): 13 Total # events
- AEs considered by the Investigator to be related to Dexamethasone ([1]; 900 μg XG-102 group): 1 (1.5%) Total # events (%)
- AEs considered by the Investigator to be related to XG-102 ([1]; 900 μg XG-102 group): 12 (17.4%) Total # events (%)
- AEs possibly or probably related to study medication ([1]; XG-102 90 μg): 18 events
- Intraocular pressure increased, patients ([1]; XG-102 90 μg): 23%
- events in SOC EYE DISORDERS ([1]; XG-102 90 μg): 49 events
- events resulting in premature withdrawal of study treatment eye drops ([1]; XG-102 90 μg): 11 events
- patients with SAEs ([1]; XG-102 90 μg): 4 patients
- patients with events in SOC EYE DISORDERS ([1]; XG-102 90 μg): 26 (55%)
- percentage of patients with an AE within 24 hours after administration ([1]; XG-102 90 μg): 34%
- total number of AEs reported ([1]; XG-102 90 μg): 78
- Reported AEs by severity: Mild ([1]; XG-102 90 μg dose group): 55 (70.5%) number of events (% of reported events)
- Reported AEs by severity: Moderate ([1]; XG-102 90 μg dose group): 6 (7.7%) number of events (% of reported events)
- Reported AEs by severity: Severe ([1]; XG-102 90 μg dose group): 17 (21.7%) number of events (% of reported events)
- AEs possibly or probably related to study medication ([1]; XG-102 900 μg): 13 events
- Intraocular pressure increased, patients ([1]; XG-102 900 μg): 10%
- events in SOC EYE DISORDERS ([1]; XG-102 900 μg): 43 events
- events resulting in premature withdrawal of study treatment eye drops ([1]; XG-102 900 μg): 8 events
- patients with SAEs ([1]; XG-102 900 μg): 3 patients
- patients with events in SOC EYE DISORDERS ([1]; XG-102 900 μg): 24 (50%)
- percentage of patients with an AE within 24 hours after administration ([1]; XG-102 900 μg): 27%
- total number of AEs reported ([1]; XG-102 900 μg): 69
- Reported AEs by severity: Mild ([1]; XG-102 900 μg dose group): 49 (71.0%) number of events (% of reported events)
- Reported AEs by severity: Moderate ([1]; XG-102 900 μg dose group): 12 (17.4%) number of events (% of reported events)
- Reported AEs by severity: Severe ([1]; XG-102 900 μg dose group): 8 (11.6%) number of events (% of reported events)
- Eye pain ([1]; XG-102 900 μg vs dexamethasone (p=0.029)): Eye pain was more frequently reported for patients allocated to the XG-102 900 μg group
